US20240041830A1, “CIRCULATING BIOMARKERS OF RESPONSE TO PD-1/PD-L1 BLOCKADE AND GSK-3 INHIBITION” (Brown University, priority 2022, published 2024)

Legend:
HT-29 = test: microarray analysis; type: cell-based, human; details: 1 μM, 24 hours, vs untreated
Procedure: Microarrays. A total of 0.5×10^6 tumor cells (HCT-116, HT-29, KM12C) were plated in a 6-well plate and allowed to adhere overnight before 24-hour treatment, as indicated. Then, 1×10^6 immune cells (NK92, TALL-104) were plated and treated with elraglusib as indicated for twenty-four h. RNA was isolated from cell pellets in batches of six using a RNeasy Plus Mini Kit (Cat #74134, Qiagen, Hilden, Germany). Acceptable RNA concentration and quality were verified with Nanodrop and Bioanalyzer measurements. GeneChip™ Human Transcriptome Array 2.0 assays were conducted according to manufacturer instructions in two batches using randomized samples to limit batch effects (Cat #902162, Applied Biosystems, Waltham, MA, USA). Applied Biosystems Transcriptomic Analysis Console (TAC) software (RRID: SCR_016519) was used to calculate fold changes in gene expression relative to the untreated control cells. Values were considered statistically significant for p values<0.05.
The inventors then utilized microarray analysis to gain insights into gene expression changes in colorectal cancer cell lines post-GSK-3 inhibition with elraglusib. Several colorectal cancer cell lines (HCT-116, HT-29, KM12C) were treated with elraglusib at IC-50 concentrations or DMSO as vehicle control for twenty-four hours. Treated versus untreated samples were compared in triplicate using microarray analysis FIG. 10. Results were calculated using a fold change (FC) cutoff of >1.5, <−1.5, and a minimum p-value of<0.05. HCT-116 cells had 340 differentially expressed genes post-treatment. FIG. 2C.
TABLE 9 description. HT-29 CRC cell microarray analysis. HT-29 colorectal cancer cells were treated with 1 μM elraglusib for 24 hours and treated versus untreated control samples were compared in triplicate via microarray analysis (N=3). Table showing differentially expressed genes of interest with their corresponding fold changes, p values, descriptions, and functions. Genes highlighted in yellow are known p53 targets. Genes are ordered by fold change and were calculated using a fold change cutoff of >1.5, <−1.5, and a minimum p value of <0.05.

[1] = test system: panel of human colorectal cell lines; test: Luminex 200 analysis of tumor cell culture supernatants (Example 1); type: cell-based
Procedure: Human cytokine profiling. Human cell line culture supernatants were analyzed using an R&D systems Human Premixed Multi-Analyte Kit (R&D Systems, Inc., Minneapolis, MN, USA) and a Luminex 200 (RRID: SCR_018025) Instrument (LX200-XPON-RUO, Luminex Corporation, Austin, TX, USA) according to the manufacturer's instructions. Sample levels of TNF-α, 4-1BB/TNFRSF9/CD137, IL-8/CXCL8, Ferritin, IFN-β, IL-10, CCL2/JE/MCP-1, VEGF, CXCL13/BLC/BCA-1, IFN-γ, CCL20/MIP-3 α, CCL3/MIP-1 α, CCL22/MDC, CCL4/MIP-1 β, Fas Ligand/TNFSF6, IL-17/1L-17A, IL-2, BAFF/BLyS/TNFSF13B, GM-CSF, CXCLS/ENA-78, TRANCE/TNFSF11/RANK L, CXCL9/MIG, G-CSF, IFN-γ R1/CD119, VEGFR3/Flt-4, C-Reactive Protein/CRP, CXCL11/I-TAC, IL-21, CXCL14/BRAK, IL-6, Fas/TNFRSF6/CD95, TRAIL R3/TNFRSF10C, IL-4, CCL5/RANTES, PD-L1/137-H1, CCL7/MCP-3/MARC, Chitinase 3-like 1, CXCL10/IP-10/CRG-2, IL-1 μ/IL-1F2, IL-7, Prolactin, CCL8/MCP-2, TRAIL R2/TNFRSF10B, M-CSF, IL-15, Granzyme B, IFN-α, TREM-1, IL-12/1L-23 p40, TRAIL/TNFSF10, CCL11/Eotaxin, and 1L-18/1L-1F4. Quantitative analysis with 6 standards and a minimum of 50 counts per bead region was used with the Luminex to generate analyte values reported as picograms/milliliter (pg/mL). Sample concentrations less than the lower limit of detection for each particular analyte were recoded as the lower limit value divided by 10. Sample concentrations above the upper limit of detection for a particular analyte were recoded as the upper limit of detection.
A panel of human colorectal cell lines was chosen to provide a varied mutational background (TP53, KRAS, BRAF, TRK, APC, PIK3CA). Cells were treated with elraglusib at doses up to 50 μM for seventy-two hours to determine IC10, IC30, IC50, and IC70. Cytokine, chemokine, and growth factor levels were analyzed in the tumor cell culture supernatants after treatment at IC10, IC30, IC50, and IC70 for forty-eight hours using a Luminex 200 multiplexing instrument. Co-culture experiments were conducted with GFP+ SW480 colorectal cancer cells and either NK-92 natural killer cells or TALL-104 T cells at various effector/target ratios in a 48-well plate, in the presence or absence of elraglusib.

Cn1cc(C2=C(c3coc4ccc(F)cc34)C(=O)NC2=O)c2cc3c(cc21)OCO3 [elraglusib]
AEN Fold Change (HT-29): 2.33 | AGGF1 Fold Change (HT-29): −2.21 | B2M Fold Change (HT-29): 2.41 | BARD1 Fold Change (HT-29): −5.06 | BCCIP Fold Change (HT-29): 1.61 | BCL6 Fold Change (HT-29): −3.43 | BRAF Fold Change (HT-29): −1.53 | BTN3A2 Fold Change (HT-29): −1.58 | CCAR1 Fold Change (HT-29): 1.56 | CCNE1 Fold Change (HT-29): −2.6 | CCNE2 Fold Change (HT-29): −5.83 | CD14 Fold Change (HT-29): −2.63 | CD276 Fold Change (HT-29): −1.56 | CDC25C Fold Change (HT-29): −2.45 | CDC45 Fold Change (HT-29): −1.75 | CDCA3 Fold Change (HT-29): −1.7 | CDK1 Fold Change (HT-29): −3.05 | CDK2 Fold Change (HT-29): −2.23 | CDKN1A Fold Change (HT-29): 1.72 | CRLF3 Fold Change (HT-29): 1.5 | DYNC1H1 Fold Change (HT-29): −1.7 | E2F7 Fold Change (HT-29): −3.82 | E2F8 Fold Change (HT-29): −3.1 | EAPP Fold Change (HT-29): −1.58 | EGR1 Fold Change (HT-29): 5.41 | ERBB2IP Fold Change (HT-29): −1.7 | FADD Fold Change (HT-29): −1.66 | FZD7 Fold Change (HT-29): −1.71 | HIP1 Fold Change (HT-29): −1.67 | IL17RA Fold Change (HT-29): −1.68 | IL17RB Fold Change (HT-29): −2.03 | ITGB6 Fold Change (HT-29): −1.91 | JAK1 Fold Change (HT-29): −1.58 | MAP3K1 Fold Change (HT-29): −6.1 | MCIDAS Fold Change (HT-29): −1.61 | MDM4 Fold Change (HT-29): 1.68 | MTA3 Fold Change (HT-29): −1.84 | MYD88 Fold Change (HT-29): −1.68 | NCR3LG1 Fold Change (HT-29): 1.78 | NFKBIA Fold Change (HT-29): −5.25 | NFKBIZ Fold Change (HT-29): −2.68 | PDS5B Fold Change (HT-29): −1.58 | PIM1 Fold Change (HT-29): −1.75 | SFN Fold Change (HT-29): 1.54 | SGK1 Fold Change (HT-29): −1.75 | SMAD3 Fold Change (HT-29): 1.69 | SOCS7 Fold Change (HT-29): 1.74 | TGFBR3 Fold Change (HT-29): −4.82 | TNFRSF12A Fold Change (HT-29): 1.9 | TNFSF15 Fold Change (HT-29): −2.32 | TNIK Fold Change (HT-29): −1.51 | TRAIP Fold Change (HT-29): 1.83 | TRIB1 Fold Change (HT-29): −9.14 | UHRF1 Fold Change (HT-29): −1.75 | macrophage colony-stimulating factor (M-CSF) [1]: decrease | VEGF in supernatant ([1]; IC10, IC30, IC50, IC70 for forty-eight hours): decreased | Overall cytokine levels ([1]; in response to increasing doses): decreasing trend | CXCL14 (BRAK) in supernatant ([1]; with increasing doses): increase
